Source: patent US20200255828A1, “METHODS AND COMPOSITIONS FOR ALTERING FUNCTION AND STRUCTURE OF CHROMATIN LOOPS AND/OR DOMAINS” (THE BROAD INSTITUTE, INC., priority 2017, published 2020)
“And” between values parts separate entries of the source, which are not always exact repeats. Equal entries are not always repeated.

Tested on: HCT-116 RAD21-mAC cells
Assay: In situ Hi-C: loops and loop domains (HiCCUPS, APA), auxin treatment and withdrawal time course
Format: cell-based, human
Description: To examine loop domains, Applicants used in situ Hi-C(Rao et al., 2014), which combines DNA-DNA proximity ligation and high-throughput sequencing to create maps showing the frequency of physical contact between all pairs of loci across the genome. Loop domains are manifest in Hi-C maps as a bright “peak” pixel (indicating the link between the two loop anchors) at the corner of a bright square (indicating the presence of a contact domain).
To see if these changes were reversible, Applicants performed a time-course analysis in which untreated cells were exposed to auxin for six hours, after which auxin was withdrawn (FIG. 2B, FIG. 9B). Low resolution Hi-C was performed immediately before treatment, as well as at a series of time points during treatment (at 20, 40, 60, 240, and 360 minutes) and after withdrawal (at 20, 40, 60, 180, 360, 1080, and 1440 minutes). To assess whether the anchors of the loop domains seen in the pre-treatment data continued to be linked (that is, co-located in space) subsequently, Applicants used a method called Aggregate Peak Analysis (APA) (Durand et al., 2016b), which superimposes the signals from a set of peak pixels, thus allowing Applicants to observe an aggregate signal even in sparse datasets where individual signals cannot be resolved (FIG. 2B). The APA signal was initially strong, but was gone by 40 minutes after treatment, and remained absent throughout the rest of the treatment period (FIG. 2B, 9B). The disappearance of the loop-domain links closely mirrored the depletion of cohesin levels in the samples during the treatment period, as ascertained by measuring mClover fluorescence (FIG. 8).
For our time course experiments, cells were treated with 500 uM IAA and crosslinked with 1% formaldehyde directly in wells of a 6-well plate at various time points after treatment (20, 40, 60, 240, 360 minutes). For the auxin withdrawal experiments, after 6 hours treatment with 500 um IAA, the cells were trypsinized, washed twice in fresh media and replated in 6-well plates in fresh media. They were then crosslinked with 1% formaldehyde directly in the 6-well plates at various time points after auxin withdrawal (20, 40, 60, 180, 360, 1080, 1440 minutes).
Applicants generated 69 in situ Hi-C libraries using the MboI restriction enzyme following the protocol described in (Rao et al., 2014) without modifications. In brief, the in situ Hi-C protocol involves crosslinking cells with formaldehyde, permeabilizing them with nuclei intact, digesting DNA with a suitable 4-cutter restriction enzyme, filling the 5′-overhangs while incorporating a biotinylated nucleotide, ligating the resulting blunt-end fragments, shearing the DNA, capturing the biotinylated ligation junctions with streptavidin beads, and analyzing the resulting fragments with paired-end sequencing.
Applicants generated 7 libraries each for the main maps (untreated HCT-116 RAD21-mAC cells and HCT-116 RAD21-mAC cells treated for 6 hours with IAA) comprised of two sets of biological replicates each (three and four technical replicate libraries per biological replicate). In addition, Applicants generated four technical replicate libraries each for untreated and treated HCT-116 RAD21-mAC cells after cell synchronization and arrest. Applicants also generated an additional 5 libraries from untreated HCT-116 RAD21-mAC cells and 4 libraries from HCT-116 RAD21-mAC cells treated for 6 hours with IAA (two additional biological replicates each) that were not included in our main maps, but were used for analysis of higher-order contacts (see below). Applicants generated four libraries (two biological replicates) for each of our loop-resolution maps along the auxin withdrawal time course (20, 40, 60 and 180 mins after auxin withdrawal). Finally, Applicants generated two technical replicate libraries per time point of our auxin treatment and withdrawal time course. […]

O=C(O)Cc1c[nH]c2ccccc12 [auxin, indole-3-acetic acid]
APA score for all loops after auxin treatment (10 kb resolution, >300 kb, untreated 2.09): 0.78
APA score for loop domains after auxin treatment (10 kb resolution, >300 kb, untreated 2.10): 0.78
number of loop domains found after auxin treatment (2,140 in untreated cells, all 9 false positives): 9
time after auxin withdrawal by which APA signal largely recovered (after 6 hours auxin): ≤ 1 h
time after auxin withdrawal with strong loop domain signal (after 6 hours auxin): ≤ 60 min
number of loops annotated in auxin-treated cells (default HiCCUPS 5, 10, 25 kb, 3,170 in untreated): 81
loops lost after auxin treatment (default HiCCUPS parameters): > 97% and ~98%
time after auxin withdrawal at which reformation of fast loop domains is apparent (fast loop domains): 20 to 40 min
time after auxin withdrawal until reformation of slow loop domains is seen (slow loop domains): 3 h
